Results: patent publication US6028083A, “Esters of (+)-α-(2,3-dimethoxyphenyl)-1-[2-(4-fluorophenyl) ethyl]-4-piperidinemethanol” (Hoechst Marion Roussel, Inc., priority 1997, dated 2000)

Tests used:
[1] = system: 5HT2A receptor; test: Antagonism of DOI-induced behaviors in rats; type: in vivo, Male Sprague-Dawley rats; conditions: single i.m. injection in sesame oil, 120 mg/kg equivalent to MDL 100,907, DOI 3.0 mg/kg i.p.
From the text: The compound of the present invention used in this test was (+)-α-(2,3-Dimethyoxyphenyl)-1-[2-(4-fluorophenyl)ethyl]-4-piperidinemethanol decanoate--Example 4 herein.-- The 5-HT2A/2C agonist (±)-DOI HCl (1-(2,5-dimethoxy-4-iodophenyl)-2-aminopropane hydrochloride) induces several quantifiable behaviors in rats. These behaviors include "shakes" (a quick head and body shake, a.k.a. wet dog shakes), "forepaw tapping" (rapid forepaw treading) and "skin-jerks" (paraspinal muscle contractions or dorsal skin-shrugging).
Male Sprague-Dawley rats (180±50 g) were housed seven per cage and allowed 1 week to acclimate to the vivarium. Food and water were freely available. The temperature and light cycle (12 h on-12 h off)were automatically maintained. Individual rats were tested once. Each testing group contained seven animals. Experiments took place in the vivarium room where the animals were housed.
Vehicle control animals were injected with sesame oil alone. (±)-DOI HCl (3.0 mg/kg, 1 mL/kg body weight) was dissolved in distilled water with the aid an ultrasonic bath, and injected intraperitoneally on appropriate testing days.
(+)-α-(2,3-Dimethyoxyphenyl)-1-[2-(4-fluorophenyl)ethyl]-4-piperidinementhanol decanoate-treated rats were tested for antagonism of DOI-induced behaviors 1, 5, 7, 14, 21, 28 and 40 days after the single (+)-α-(2,3-Dimethyoxyphenyl)-1-[2-(4-fluorophenyl)ethyl]-4-piperidinementhanol decanoate intramuscular injection. Each rat was tested once. Immediately after DOI injection rats were placed under inverted clear plastic boxes (28 L×25 W×25 H cm) which were arranged on top of clean absorbent paper. Rats were continuously watched by trained observers (blind to treatment) for 30 minutes for the occurrence of DOI-induced behaviors (shakes, skin-jerks and forepaw tapping bouts) and then returned to their home cages. Rats were later used for pharmacokinetic studies. The frequencies of DOI-induced behaviors were recorded and then summed to provide a single behavioral score for each animal.
The mean and standard error of the behavioral scores of each group was determined. […]

[2] = in vivo; set-up: species or system male Wistar rats; conditions: rat, im, 120 mg/kg
Description: Rats are anesthetized with a lethal i.p. dose of nembutal and blood collected at 3 and 6 hours, and various days post-dose (n=5 for each timepoint) in heparinized vacutainers. Blood samples are centrifuged for 30 minutes at 5 C and at approximately 2700 rpm. Plasma is removed and stored at -20° C. until assay. The plasma samples are analyzed by an appropriate HPLC method. Brains will also be collected at the above timepoints and stored at -80° C. until analyzed by the appropriate HPLC method.

[3] = Chronic Mild Stress Model of Depression (CMS), consumption of 1% sucrose solution; type: in vivo, Male Wistar rats
From the text: CMS uses mild stressors, such as food and water deprivation, small temperature changes, changes of cage mates, etc. Over a period of weeks of exposure to the mild stressors, the animals gradually reduce their consumption of a highly preferred sucrose solution which persists (in untreated animals) for several weeks following the cessation of stress. This decreased sensitivity to reward (the sucrose solution) reflects anhedonia, a symptom of a Major Depressive Episode (see for example, Behavioral Pharmacol.5: Suppl. 1, p. 86 (1994) where lithium, carbamazepine and ketoconazole were evaluated in CMS; Psychopharmacology 93:358-364 (1987) where a tricyclic antidepressant was evaluated in CMS; Behavioral Pharmacology:5:344-350 (1994) where a catechol-O-methyl transferase inhibitor was evaluated in CMS).
Male Wistar rats were brought into the laboratory two months before the start of the experiment at which time they weighed approximately 300 grams. Except as described below, the animals were singly housed, with food a water freely available, and maintained on a 12 hour light/dark cycle (lights on at 8 AM) at a temperature of 22±° C.
The animals were first trained to consume a 1% sucrose solution; training consisted of eight 1 hour baseline tests in which sucrose was presented, in the home cage, following 14 hours food and water deprivation; intake was measured by weighing pre-weighed bottles containing the sucrose solution at the end of the test. Subsequently, sucrose consumption was monitored, under similar conditions, at weekly intervals throughout the whole experiment.
On the basis of their sucrose intakes in the final baseline test, the animals were divided into two matched groups. One group of animals was subjected to a chronic mild stress procedure for a period of 9 consecutive weeks. Each week of stress regime consisted of: two periods of food or water deprivation (12 and 14 hour), two periods of 45 degree cage tilt (12 and 14 h), two periods of intermittent overnight illumination (lights on and off every 2 hours), two 14 hour periods of soiled cage (200 ml water in sawdust bedding), two 14 hour periods of paired housing, two 14 hour periods of low intensity stroboscopic illumination (150 flashes/min). Stressors were applied continuously throughout the day and night, and scheduled randomly. […] They were deprived of food and water for the 14 hours preceding each sucrose test, but otherwise food and water were freely available in the home cage. […] All drug injections were in a volume of 1 ml/kg body weight. Drugs were administered at 10 AM and sucrose tests were carried out 24 hours following the last drug treatment. After five weeks, the treatments were terminated and after one week of withdrawal a final sucrose test was carried out. Stress was continued throughout the period of treatment and withdrawal.
Results were analyzed by multiple analysis of variance, followed by Fisher's LSD test for post hoc comparisons of means.

[4] = system: PPI (prepulse inhibition); conditions: Psychopharmacology 124: 107-116 (1996); cited from earlier work
[5] = system: platelets; conditions: U.S. Pat. No. 5,561,144, cited from earlier work
[6] = system: 5HT2A receptor; conditions: cited from earlier work
[7] = system: myocardial tissue; conditions: no source or data given; cited from earlier work
[8] = system: dopamine efflux in the medial prefrontal cortex; conditions: European Journal of Pharmacology 273: 273-279 (1995); cited from earlier work
[9] = system: 5HT2A receptor; conditions: literature (Pranzatelli 1990; Wettstein et al. 1996); cited from earlier work
[10] = imipramine 10 mg/kg ip daily, five weeks
[11] = MDL 100,907 0.002, 0.02 and 0.2 mg/kg orally
[12] = MDL 100,907 0.002, 0.02 and 0.2 mg/kg orally, NS
[13] = MDL 100,907 0.02 and 0.2 mg/kg orally

With `CCCCCCCCCC(=O)O[C@@H](c1cccc(OC)c1OC)C1CCN(CCc2ccc(F)cc2)CC1` [Example 4, (+)-α-(2,3-Dimethyoxyphenyl)-1-[2-(4-fluorophenyl)ethyl]-4-piperidinementhanol decanoate] the “antagonism of DOI-induced behavior at day 40” value [1] was “no longer significant”, the “duration of significant antagonism of DOI-induced behavior” value ([1]; p<=0.05) was 28 days and the “antagonism of DOI-induced behavior” value ([1]; through day 28) was “Significantly antagonized DOI-induced behavior”. It also gave a concentration at 3 h [2] of 54.2 ± 13.3 ng/mL, a concentration at 6 h [2] of 53.8 ± 17.1 ng/mL and a concentration at 24 h [2] of 54.1 ± 18 ng/mL. It also gave a concentration at 48 h [2] of 21.6 ± 7.39 ng/mL, a concentration at 72 h [2] of 39 ± 5.64 ng/mL and a concentration at 96 h [2] of 52 ± 12.9 ng/mL. The concentration at 144 h [2] was 41.9 ± 14.6 ng/mL, the concentration at 192 h [2] was 28.7 ± 9.16 ng/mL and the concentration at 288 h [2] was 21 ± 12.8 ng/mL. The concentration at 360 h [2] was 52.4 ± 15.2 ng/mL, the concentration at 456 h [2] was 40.1 ± 8.44 ng/mL and the concentration at 528 h [2] was 46.3 ± 9.31 ng/mL. The concentration at 624 h [2] was 38.9 ± 9.35 ng/mL, the concentration at 696 h [2] was 43.7 ± 10.8 ng/mL and the concentration at 984 h [2] was 24.1 ± 9.15 ng/mL.

In the case of `CN(C)CCCN1c2ccccc2CCc2ccccc21` [Imipramine], the “sucrose intake in stressed animals, F(1,84)” value ([3]; imipramine 10 mg/kg ip daily) is reported as 16.776, the “sucrose intake in stressed animals, p (treatment)” value ([3]; imipramine 10 mg/kg ip daily) is reported as < 0.001 and the “sucrose intake of drug-treated stressed animals vs drug- and saline-treated controls” value ([3]; imipramine 10 mg/kg ip daily, after five weeks of treatment) is reported as “no significant differences”. For the same compound, the “effect on sucrose intake in control animals” value [3, 10] was “no significant effect”, the “effect on sucrose intake in stressed animals” value [3, 10] was “gradual increase of sucrose intake” and the “sucrose intake in stressed animals after withdrawal” value ([3]; imipramine 10 mg/kg ip daily, one week after withdrawal) was “maintained at similar level”. The “sucrose intake in control animals, F(1,84)” value ([3]; imipramine 10 mg/kg ip daily, NS) was 0.364.

In the case of `COc1cccc([C@H](O)C2CCN(CCc3ccc(F)cc3)CC2)c1OC` [MDL 100,907, (+)-α-(2,3-dimethoxyphenyl)-1-[2-(4-fluorophenyl)ethyl]-4-piperidinemethanol], the “effect on disrupted PPI” value [4] is listed as “restore disrupted PPI”, the “effect on rate at which platelets aggregate” value [5] is listed as “decreases the rate at which platelets aggregate” and the “prevention of acute thrombosis” value ([5]; especially of the coronary arteries) is listed as “effective in the prevention of acute thrombosis”. For the same compound, the “5HT2A receptor antagonist potency” value [6] was “potent 5HT2A receptor antagonist”, the “anti-arrhythmic class (Vaughan Williams)” value [7] was “Class III anti-arrhythmic activity” and the “effect on action potential of myocardial tissue” value [7] was “increases the duration of the action potential of myocardial tissue”. The “influence on dopamine efflux in the medial prefrontal cortex” value [8] was “tonic inhibitory influence on dopamine efflux”, the “effect on sucrose intake throughout the whole treatment period” value ([3]; MDL 100,907 0.002 mg/kg orally) was “no significant effect” and the “sucrose intake in stressed animals vs Week 0” value ([3]; MDL 100,907 0.02 mg/kg (after two weeks) and 0.2 mg/kg (after three weeks) orally) was “significantly increased from initial scores”. The “sucrose intake in stressed animals, Treatment effect F(3,168)” value [3, 11] was 22.567, the “sucrose intake in stressed animals, Treatment effect p” value [3, 11] was < 0.001 and the “sucrose intake in stressed animals, Treatment x Weeks interaction F(15,158)” value [3, 11] was 1.559. The “sucrose intake in stressed animals, Treatment x Weeks interaction p” value [3, 11] was 0.05, the “effect on sucrose intake in control animals” value ([3]; MDL 100,907 0.002, 0.02 and 0.2 mg/kg orally daily, five weeks) was “no significant effect” and the “sucrose intake in control animals, Treatment effect F(3,168)” value [3, 12] was 0.821. The “sucrose intake in control animals, Treatment x Weeks interaction F(15,168)” value [3, 12] was 0.499, the “sucrose intake of stressed animals vs vehicle-treated controls at Week 5” value [3, 13] was “comparable to that of vehicle-treated controls” and the “sucrose intake of stressed animals vs vehicle-treated stressed animals at Week 5” value [3, 13] was “significantly higher than that of vehicle-treated stressed animals”. For the same compound, the “sucrose intake one week after withdrawal” value ([3]; MDL 100,907 all doses, control and stressed animals) was “not significantly changed” and the “effect on CMS-induced deficit in sucrose intake in stressed animals” value ([3]; MDL 100,907 orally daily, five weeks) was “gradually reversed the CMS-induced deficit in sucrose intake”.

For `Cc1nc2sccn2c(=O)c1CCN1CCC(=C(c2ccc(F)cc2)c2ccc(F)cc2)CC1` [ritanserin], the “block of the behavioral effects of DOI” value [9] is given as “dose-dependently block the behavioral effects of DOI”.
